Source: article PMC7763418 (Journal of the American Heart Association: Cardiovascular …, 2020)

Columns and labels:
[1] = test system: healthy male participants; experiment: Relative stroke volume; type: in vivo, human; conditions: esmolol 1.25 mg/kg bolus+[…] iv
cardiac beta 1 receptors = conditions: esmolol dose used (1.25 mg/kg bolus+[…]); cited from earlier work
[2] = test system: healthy male participants; experiment: Heart rate, arterial line/ECG recording; type: in vivo, human; conditions: days B and C, after 15 min of esmolol 1.25 mg/kg bolus+[…] iv

In the case of `COC(=O)CCc1ccc(OCC(O)CNC(C)C)cc1` (stereo not shown) [esmolol], the “Reduction of mean stroke volume from −15 minutes to baseline” value ([1]; day B) is listed as 13.7%, the “Reduction of mean stroke volume from −15 minutes to baseline” value ([1]; day C, before glucagon) is listed as 25.8% and the “Cardiac beta 1 receptors blocked” value (cardiac beta 1 receptors) is listed as greater than 85%. The “Average heart rate at baseline (0 min)” value [2] was 58.2 bpm.
